# Source: patent US10214779B2, “Method for identification of anti-HIV human miRNA mimics and miRNA inhibitors and anti-HIV pharmaceutical compounds” (CSIR, priority 2013, dated 2019)
# Structures can show the parent of a compound that is named as a salt. *1 amine or outer side, *2 acyl side, *3 side chain or, on linkers, in order; H or OH if unused. Where a SMILES comes first, the peptide text is derived from it. Bridges are numbered along the chain shown (N, C = ends). Roman numbers before positions name the chains, in order. [ ]: non-standard residue; d: D form. Actinocin(9to1) = Cc1c2oc3c(C)ccc(C(=O)[*:1])c3nc-2c(C(=O)[*:2])c(N)c1=O; NMeV = CN[C@H](C(=O)O)C(C)C; Sar = CNCC(=O)O
# Target: T1, Aurora A (Homo sapiens, UniProt O14965)
# T1 sequence (O14965 1-403): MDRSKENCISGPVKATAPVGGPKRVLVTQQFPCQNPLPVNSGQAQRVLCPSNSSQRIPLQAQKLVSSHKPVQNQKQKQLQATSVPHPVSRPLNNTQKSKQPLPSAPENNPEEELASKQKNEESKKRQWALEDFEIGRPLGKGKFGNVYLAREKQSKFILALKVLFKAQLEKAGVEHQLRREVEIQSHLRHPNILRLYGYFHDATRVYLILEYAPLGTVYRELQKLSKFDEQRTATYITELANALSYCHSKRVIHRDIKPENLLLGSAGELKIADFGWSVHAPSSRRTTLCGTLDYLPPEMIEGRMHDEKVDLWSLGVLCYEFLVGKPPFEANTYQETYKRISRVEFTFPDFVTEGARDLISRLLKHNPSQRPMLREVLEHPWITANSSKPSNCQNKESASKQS
# Test: not given
# Settings: Aurora A; cited from earlier work
row,Structure (SMILES),IC50
1,CCN1CCN(C(=O)Cc2ccc(Nc3ncc(F)c(Nc4ccc(C(=O)Nc5ccccc5Cl)cc4)n3)cc2)CC1 [Aurora A inhibitor I],3.4 nM

# Same assay, conditions: Aurora B / Aurora A selectivity; cited from earlier work
row,Structure (SMILES),B/A ratio
1,CCN1CCN(C(=O)Cc2ccc(Nc3ncc(F)c(Nc4ccc(C(=O)Nc5ccccc5Cl)cc4)n3)cc2)CC1 [Aurora A inhibitor I],1000

# Test system: HIV (Subtype B pseudoviral strain, PSGIII) in GHOST(3) cells
# Test: Targeted drug screen, Clearance Screen (drug after HIV infection) in GHOST(3) cells
# Type: cell-based, HIV-1
# Settings: infection MOI 0.5 for 48 hour, then drug 24 h, screened at 100 nM, 1 uM and 10 uM
# Procedure: A library of 101 Food and Drug Administration (FDA) approved oncology drugs as well as a library of 192 kinase-inhibitor compounds were screened as potential anti-HIV therapeutics using the GHOST(3) reporter cell line. Drugs were screened at 3 different concentrations of 100 nM, 1 uM and 10 uM. Each library was screened in triplicate at each drug concentration and in the following 3 formats:
# This screen format was utilised to identify drugs/compounds that were able to suppress HIV replication in host cells already infected by HIV or drugs/compounds that were able to selectively target HIV-infected cells for apoptosis. GHOST(3) cells were seeded in the wells of a 96 well plate 24 hour prior to infection with the Subtype B pseudoviral strain, PSGIII, at an MOI of 0.5. The infective media was then removed 48 hour post infection and replaced with normal culture media supplemented with a drug/compound at the appropriate concentration. Twenty-four hours post drug treatment, cells were processed for imaging as previously described.
# This screen format was used as a control to identify drugs that were broadly cytotoxic. […] GHOST(3) cells were seeded in 96 well plates, 24 hr post seeding, drugs were added to culture medium at the required final concentration. Twenty-four hours post drug treatment cells were processed for imaging as described previously.
# Subtype B viral stocks were produced by the dual transfection of HEK293T cells with a PSGIII (Subtype B) viral backbone plasmid which lacks an envelope/packaging protein and a second plasmid expressing an HIV-BAL viral envelope protein (Subtype B). Plasmid transfections were conducted using the FuGene 6 lipid-based transfection reagent (Promega) as per the manufacturer's guidelines. Viral titres were determined using a luciferase readout-assay based on the JC53 cell line and the TCID50 calculation method described by Reed and Muench (1938). GHOST(3) cells were exposed to virions at an MOI of 0.5 for both the miRNA and targeted drug/compound screens. Cells were infected in SFM supplemented with 1× Glutamax (Infecting media) as FBS has previously been described to negatively impact the infection efficiency of HIV.
# Cells were washed twice in 1×PBS before fixation with a 3.7% Formaldehyde solution for 30 minutes at room temperature. Cells were washed once with 1× PBS before the addition of Hoechst Nuclear stain (Invitrogen) at 2 uM final concentration in 1×PBS for 30 minutes at room temperature. The Hoechst staining solution was aspirated and replaced with 50 uL of 1×PBS solution before imaging.
# Four fields of view (100 um apart) were acquired from the central region of each well imaged. Images were acquired in the 405 and 488 fluorescent channels for each field of view. Wells were imaged using the 20× ewld objective on the Image Xpress Ultra automated confocal microscope system (Molecular Devices). The imaging parameters were kept constant for all replicates of both miRNA and targeted drug/compound screens.
# Feature extraction algorithms were utilized in order to extract 16 subcellular measurements from the acquired images. These 16 factors are derived from 15 descriptors previously described by Genovesio et al. 2011 to be relevant indicators of the infective state of host cells, with addition of ‘infection efficiency’ as a descriptor of the percentage of infected cells per treatment well.
# A bespoke support vector machine-learning (SVML) pattern recognition algorithm was trained to identify phenotypes of interest using the relevant control wells. […] The transfection of siCD4 and Raltegravir treatment were thus utilised in the miRNA and drug/compound screens respectively as positive controls for the inhibition of HIV-1 replication. […]
row,Structure (SMILES),Effect (Clearance Screen)
1,Cc1[nH]nc2ccc(-c3cncc(OC[C@@H](N)Cc4ccccc4)c3)cc12 [A-674563],Suppressed HIV^b
2,N.N.[Cl][Pt][Cl] [Cisplatin],Suppressed HIV^b
3,"Cc1c2oc3c(C)ccc(C(=O)N[C@@H]4C(=O)N[C@H](C(C)C)C(=O)N5CCC[C@H]5C(=O)N(C)CC(=O)N(C)[C@@H](C(C)C)C(=O)O[C@@H]4C)c3nc-2c(C(=O)N[C@@H]2C(=O)N[C@H](C(C)C)C(=O)N3CCC[C@H]3C(=O)N(C)CC(=O)N(C)[C@@H](C(C)C)C(=O)O[C@@H]2C)c(N)c1=O [Dactinomycin] (I: T[dV]P[Sar][NMeV] / II: T[dV]P[Sar][NMeV]; ester I:1-I:C, II:1-II:C; linker I:N-II:N via Actinocin(9to1))",Suppressed HIV^b
4,C[C@@H](CN1CC(=O)NC(=O)C1)N1CC(=O)NC(=O)C1 [Dexrazoxane],Suppressed HIV^b
5,CO[C@H]1C[C@@H]2CC[C@@H](C)[C@@](O)(O2)C(=O)C(=O)N2CCCC[C@H]2C(=O)O[C@H]([C@H](C)C[C@@H]2CC[C@@H](OCCO)[C@H](OC)C2)CC(=O)[C@H](C)/C=C(\C)[C@@H](O)[C@@H](OC)C(=O)[C@H](C)C[C@H](C)/C=C/C=C/C=C/1C [Everolimus],Suppressed HIV^b
6,O=P1(NCCCl)OCCCN1CCCl (centres unmarked) [Ifosfamide],Suppressed HIV^b
7,CCCS(=O)(=O)Nc1ccc(F)c(C(=O)c2c[nH]c3ncc(-c4ccc(Cl)cc4)cc23)c1F [Vemurafenib],Suppressed HIV^b

# Test system: HIV (Subtype B pseudoviral strain, PSGIII) in GHOST(3) cells
# Test: Targeted drug screen, Phenocopy Screen (drug before HIV infection) in GHOST(3) cells
# Settings: 10 uM, added 24 hour prior to exposure to HIV
# Procedure: GHOST(3) cells were seeded in the wells of a 96 well plate 24 hour prior to addition of a specific oncology drug at the appropriate concentration. Twenty-four hours post drug treatment, the drug supplemented media was removed and replaced with infective media containing the Subtype B pseudoviral strain, PSGIII. Cells were infected at an MOI of 0.5. The infective media was removed 48 hour post infection and cells were processed for imaging as previously described (See Sample Preparation).
# Four fields of view (100 um apart) were acquired from the central region of each well imaged. […] Wells were imaged using the 20× ewld objective on the Image Xpress Ultra automated confocal microscope system (Molecular Devices). The imaging parameters were kept constant for all replicates of both miRNA and targeted drug/compound screens.
row,Structure (SMILES),HIV replication (positive control phenotype)
1,Cc1nnc(C(=O)NC(C)(C)c2nc(C(=O)NCc3ccc(F)cc3)c(O)c(=O)n2C)o1 [Raltegravir],suppressed HIV replication

# Same assay, conditions: drug 24 h before infection, MOI 0.5, 48 hour; screened at 100 nM, 1 uM and 10 uM; GHOST(3) cells
row,Structure (SMILES),Effect (Phenocopy Screen)
1,O=C(NC1CCNCC1)c1[nH]ncc1NC(=O)c1c(Cl)cccc1Cl [AT7519],Toxic in response
2,CCN1CCN(C(=O)Cc2ccc(Nc3ncc(F)c(Nc4ccc(C(=O)Nc5ccccc5Cl)cc4)n3)cc2)CC1 [Aurora A inhibitor I],Toxic in response
3,COC(=O)c1ccc2c(c1)NC(=O)/C2=C(\Nc1ccc(N(C)C(=O)CN2CCN(C)CC2)cc1)c1ccccc1 [BIBF1120 (Vargatef)],Suppressed HIV^a
4,"CC1(COc2ccc3c(c2)ncn3-c2ccc3cccc(N4CCC(N)CC4)c3n2)COC1 [Crenolanib (CP-868596), Crenolanib]",Toxic in response
5,C#Cc1cccc(Nc2ncnc3cc(OCCOC)c(OCCOC)cc23)c1 [Erlotinib hydrochloride],Toxic in response
6,O=c1[nH]c(=O)n([C@H]2C[C@H](O)[C@@H](CO)O2)cc1F [Floxuridine],Toxic in response
7,COc1cc2c(Oc3ccc(NC(=O)C4(C(=O)Nc5ccc(F)cc5)CC4)cc3F)ccnc2cc1OCCCN1CCOCC1 [Foretinib],Suppressed HIV^a
8,COc1ncc(-c2ccc3nccc(-c4ccnnc4)c3c2)cc1NS(=O)(=O)c1ccc(F)cc1F [GSK2126458],Suppressed HIV^a
9,COc1cc2ncnc(Nc3ccc(F)c(Cl)c3)c2cc1OCCCN1CCOCC1 [Gefitinib],Toxic in response
10,c1ccc2c(-c3cnn4cc(-c5ccc(N6CCNCC6)cc5)cnc34)ccnc2c1 [LDN193189],Toxic in response
11,Cc1ccc(C(=O)Nc2cccc(C(F)(F)F)c2)cc1Nc1nc(-c2cccnc2)nc2c1cnn2C [NVP-BHG712],Suppressed HIV^a
12,Cc1ccc([N+](=O)[O-])cc1S(=O)(=O)N(C)/N=C/c1cnc2ccc(Br)cn12 [PIK-75],Toxic in response
13,Cc1ccc(C(=O)Nc2ccc(CN3CCN(C)CC3)c(C(F)(F)F)c2)cc1C#Cc1cnc2cccnn12 [Ponatinib],Suppressed HIV^a
14,CC(C)(C)c1cnc(CSc2cnc(NC(=O)C3CCNCC3)s2)o1 [SNS-032 (BMS-387032)],Toxic in response
15,CN1CCN(CCOc2cc(OC3CCOCC3)c3c(Nc4c(Cl)ccc5c4OCO5)ncnc3c2)CC1 [Saracatinib],Suppressed HIV^a
16,Cn1nnc2c(C(N)=O)ncn2c1=O [Temozolomide],Suppressed HIV^a
17,O=C1CCC(N2C(=O)c3ccccc3C2=O)C(=O)N1 (centres unmarked) [Thalidomide],Suppressed HIV^a
18,CC[C@]1(O)C[C@H]2CN(CCc3c([nH]c4ccccc34)[C@@](C(=O)OC)(c3cc4c(cc3OC)N(C=O)[C@H]3[C@@](O)(C(=O)OC)[C@H](OC(C)=O)[C@]5(CC)C=CCN6CC[C@]43[C@@H]65)C2)C1 [Vincristine sulfate],Suppressed HIV^a
19,O=C(CCCCCCC(=O)Nc1ccccc1)NO [Vorinostat],Toxic in response
20,C=CC(=O)Nc1cccc(Oc2nc(Nc3ccc(N4CCN(C)CC4)cc3OC)ncc2Cl)c1 [WZ4002],Suppressed HIV^a

# Target: Aurora B (Homo sapiens, UniProt Q96GD4)
# Test: not given
# Settings: cited from earlier work
# Aurora B, sequence (Q96GD4 whole entry): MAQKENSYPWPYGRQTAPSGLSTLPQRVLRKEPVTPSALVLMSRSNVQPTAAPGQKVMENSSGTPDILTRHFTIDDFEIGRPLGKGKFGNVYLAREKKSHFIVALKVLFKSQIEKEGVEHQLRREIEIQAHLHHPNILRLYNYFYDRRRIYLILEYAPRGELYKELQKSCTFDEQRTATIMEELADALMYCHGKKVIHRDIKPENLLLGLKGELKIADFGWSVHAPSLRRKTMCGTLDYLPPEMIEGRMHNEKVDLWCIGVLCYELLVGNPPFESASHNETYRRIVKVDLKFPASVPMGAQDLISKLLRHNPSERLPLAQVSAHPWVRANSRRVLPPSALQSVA
row,Structure (SMILES),IC50
1,CCN1CCN(C(=O)Cc2ccc(Nc3ncc(F)c(Nc4ccc(C(=O)Nc5ccccc5Cl)cc4)n3)cc2)CC1 [Aurora A inhibitor I],3400 nM

# Target: p110γ (Homo sapiens, UniProt P48736)
# Test: not given
# Settings: cited from earlier work
# p110γ, sequence (P48736 whole entry, species assumed): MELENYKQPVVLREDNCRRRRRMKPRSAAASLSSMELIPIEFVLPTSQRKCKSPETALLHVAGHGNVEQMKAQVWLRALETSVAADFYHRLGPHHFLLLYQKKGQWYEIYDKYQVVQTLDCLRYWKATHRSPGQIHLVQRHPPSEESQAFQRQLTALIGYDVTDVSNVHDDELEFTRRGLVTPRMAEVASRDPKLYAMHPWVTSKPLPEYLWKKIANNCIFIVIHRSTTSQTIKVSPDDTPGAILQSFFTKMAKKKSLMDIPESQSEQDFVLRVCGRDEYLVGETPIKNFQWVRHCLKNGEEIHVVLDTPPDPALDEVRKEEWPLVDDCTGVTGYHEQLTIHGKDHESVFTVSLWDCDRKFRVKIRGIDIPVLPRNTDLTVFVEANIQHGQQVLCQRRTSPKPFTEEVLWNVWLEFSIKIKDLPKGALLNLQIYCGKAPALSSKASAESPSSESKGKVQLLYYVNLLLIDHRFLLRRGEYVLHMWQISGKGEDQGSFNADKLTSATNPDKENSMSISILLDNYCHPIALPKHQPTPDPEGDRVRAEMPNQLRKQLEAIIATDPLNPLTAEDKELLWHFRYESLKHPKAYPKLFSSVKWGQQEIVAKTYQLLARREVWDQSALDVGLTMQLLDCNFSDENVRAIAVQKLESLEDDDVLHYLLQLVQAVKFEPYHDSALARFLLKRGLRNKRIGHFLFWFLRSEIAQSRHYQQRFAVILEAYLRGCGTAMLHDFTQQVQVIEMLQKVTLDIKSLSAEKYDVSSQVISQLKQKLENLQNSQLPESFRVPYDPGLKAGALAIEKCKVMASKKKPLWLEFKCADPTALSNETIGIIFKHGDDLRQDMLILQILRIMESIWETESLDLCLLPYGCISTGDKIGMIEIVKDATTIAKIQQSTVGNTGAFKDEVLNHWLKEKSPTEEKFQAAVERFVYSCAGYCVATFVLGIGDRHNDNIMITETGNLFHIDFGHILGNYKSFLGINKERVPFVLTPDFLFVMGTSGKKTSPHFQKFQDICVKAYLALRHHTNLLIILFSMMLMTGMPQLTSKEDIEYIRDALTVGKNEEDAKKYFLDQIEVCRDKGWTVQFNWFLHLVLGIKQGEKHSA
row,Structure (SMILES),IC50
1,Cc1ccc([N+](=O)[O-])cc1S(=O)(=O)N(C)/N=C/c1cnc2ccc(Br)cn12 [PIK-75],76 nM
